Values after ≈ are worked out from the molar mass of the structure shown. Active and inactive are the calls of the source. The calls are words filed in the database; no cut-off is given here.
Experiments:
[1] = AUMC (0 to infinity) in Kunming mouse at 10 mg/kg, po measured upto 24 hrs by LC-MS analysis; assay type: ADME, organism-based; conditions: in vivo
[2] = test system: Acinetobacter baumannii; assay: Antibiofilm activity against Acinetobacter baumannii assessed as biofilm eradication at 0.016 mmol/L incubated for 24 hrs by crystal violet staining based analysis relative to control; assay type: functional
[3] = test system: Escherichia coli; assay: Antibacterial activity against Escherichia coli ATCC 25922 assessed as bacterial growth inhibition incubated for 24 hrs by broth microdilution method; assay type: functional
[4] = test system: Calf thymus DNA; assay: Induction of calf thymus DNA cleavage at 0.05 mmol/L incubated for 6 hrs in presence of Zn(NO3)2 by agarose gel electrophoresis method; assay type: nucleic-acid assay; conditions: Bos taurus
[5] = AUC (0 to infinity) in Kunming mouse at 10 mg/kg, iv measured upto 24 hrs by LC-MS analysis; assay type: ADME, organism-based; design: dose 10 mg/kg, time < 24 hrs, route iv; conditions: in vivo
[6] = test system: Staphylococcus aureus; assay: Antibacterial activity against Staphylococcus aureus ATCC 25923 assessed as bacterial growth inhibition incubated for 24 hrs by broth microdilution method; assay type: functional
[7] = test system: Calf thymus DNA; assay: Binding affinity to calf thymus DNA incubated for 5 mins by acridine orange displacement assay; assay type: nucleic-acid assay; conditions: Bos taurus
[8] = test system: Staphylococcus aureus; assay: Antibacterial activity against Staphylococcus aureus assessed as bacterial growth inhibition incubated for 24 hrs by broth microdilution method; assay type: functional
[9] = test system: Cell membrane; assay: Induction of outer membrane damage in Acinetobacter baumannii at 1 to 8 times MIC incubated for 30 mins by fluorescence based assay
[10] = AUMC (0 to infinity) in Kunming mouse at 10 mg/kg, iv measured upto 24 hrs by LC-MS analysis; assay type: ADME, organism-based; conditions: in vivo
[11] = test system: Pseudomonas aeruginosa; assay: Antibacterial activity against Pseudomonas aeruginosa assessed as bacterial growth inhibition incubated for 24 hrs by broth microdilution method; assay type: functional
[12] = test system: Pseudomonas aeruginosa; assay: Antibacterial activity against Pseudomonas aeruginosa ATCC 27853 assessed as bacterial growth inhibition incubated for 24 hrs by broth microdilution method; assay type: functional
[13] = MRT (0 to infinity) in Kunming mouse at 10 mg/kg, po measured upto 24 hrs by LC-MS analysis; assay type: ADME, organism-based; conditions: in vivo

Compound `OCCN(CCO)c1nccc(-n2cncn2)n1` has an AUMC [1] of 37723 hr.hr.ng/ml, an Activity [2] of 39.1% and an MIC [3] of 1 µM (≈ 0.25 µg/mL). For the same compound, the Activity [4] was “inactive”, the AUC [5] was 2281 ng·h/mL and the MIC [6] was 128 µM (≈ 32 µg/mL). For the same compound, the Activity [7] was “inactive”, the MIC [8] was 512 µM (≈ 128 µg/mL) and the Activity [9] was “inactive”. For the same compound, the AUMC [10] was 8598 hr.hr.ng/ml, the MIC [11] was 1 µM (≈ 0.25 µg/mL) and the MIC [12] was 512 µM (≈ 128 µg/mL). For the same compound, the MRT inf [13] was 4.67 h.

From ChEMBL document CHEMBL5380831, “Azolylpyrimidinediols as Novel Structural Scaffolds of DNA-Groove Binders against Intractable Acinetobacter baumannii” (J Med Chem, 2023)
